Experiment [1] addresses Adenosine A2a (ADORA2A) receptor (Homo sapiens (Human), UniProt P29274). In words: ADORA2A Receptor Binding Assay. To be noted: radioligand binding, membrane stock. In a few lines: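 Test compounds incubated with A2a receptor membranes and a ³H-labelled radioligand for 2 hours at room temperature, then filtered through PEI-presoaked GF/C plates and washed. Filter-bound ³H counted by scintillation; % inhibition calculated from background-subtracted signal relative to high control.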

Experiment [2] deals with Adenosine A2B (ADORA2B) receptor (Homo sapiens (Human), UniProt P29275). Nature of the experiment: ADORA2B Receptor Binding Assay. The conditions noted are these: radioligand binding, membrane stock. The method, boiled down:
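Radioligand competition binding on human A2B receptor membranes, 1 h at room temperature, then filtration through BSA-presoaked GF/C filters and ³H counting by scintillation. Inhibition expressed as % of high control after background subtraction.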

This is an account of results in US11718622B2, “Heterocyclic adenosine receptor antagonists” (Exelixis, Inc., priority 2020, dated 2023).

Chain of Adenosine A2a (ADORA2A) receptor (P29274 whole entry): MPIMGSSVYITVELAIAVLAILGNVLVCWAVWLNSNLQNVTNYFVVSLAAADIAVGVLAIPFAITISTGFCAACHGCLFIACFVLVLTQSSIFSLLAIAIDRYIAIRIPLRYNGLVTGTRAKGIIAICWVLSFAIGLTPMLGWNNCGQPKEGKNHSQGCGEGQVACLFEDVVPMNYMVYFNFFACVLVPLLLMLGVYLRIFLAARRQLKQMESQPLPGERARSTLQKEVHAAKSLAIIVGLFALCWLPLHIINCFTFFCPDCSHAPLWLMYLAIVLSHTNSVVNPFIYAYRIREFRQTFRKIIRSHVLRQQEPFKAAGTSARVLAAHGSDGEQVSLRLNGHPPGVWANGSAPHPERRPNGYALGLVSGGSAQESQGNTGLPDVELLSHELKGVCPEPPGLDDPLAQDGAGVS
Chain of Adenosine A2B (ADORA2B) receptor (P29275 whole entry): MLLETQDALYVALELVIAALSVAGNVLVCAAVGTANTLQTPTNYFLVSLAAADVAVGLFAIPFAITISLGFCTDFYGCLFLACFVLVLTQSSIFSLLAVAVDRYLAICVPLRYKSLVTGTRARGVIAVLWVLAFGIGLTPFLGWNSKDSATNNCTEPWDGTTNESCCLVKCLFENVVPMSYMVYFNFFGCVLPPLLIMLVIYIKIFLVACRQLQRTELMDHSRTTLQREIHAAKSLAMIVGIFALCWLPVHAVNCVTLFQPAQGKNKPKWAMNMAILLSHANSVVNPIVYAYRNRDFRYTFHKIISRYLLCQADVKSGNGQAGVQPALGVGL

For orientation: IC50 means the concentration needed to halve the response being measured. Read a high IC50 as a need for much substance. In the case of `Cc1ccc(-c2nc(NC(=O)C3CC3)cn3nc(C(C)C)nc23)o1` [Compound 173, N-[8-(5-methylfuran-2-yl)-2-propan-2-yl-[1,2,4]triazolo[1,5-a]pyrazin-6-yl]cyclopropanecarboxamide], the IC50 in experiment [1] and in experiment [2] was under 10 nM throughout.

Regarding `CC(=O)Nc1cn2nc(C)nc2c(-c2ccc(C)o2)n1` [Compound 174, N-[2-methyl-8-(5-methylfuran-2-yl)-[1,2,4]triazolo[1,5-a]pyrazin-6-yl]acetamide], the concentration for half-maximal inhibition (IC50) in experiment [1] and in experiment [2] was under 10 nM in each case.

In the case of `Cc1nc2c(-c3ccc(C)o3)nc(N)c(Cl)n2n1` [Compound 175, 5-chloro-2-methyl-8-(5-methylfuran-2-yl)-[1,2,4]triazolo[1,5-a]pyrazin-6-amine], the IC50 in experiment [1] and in experiment [2] was under 10 nM in each case.

For `Cc1nc2c(-c3ccccc3)nc(N)c(Cl)n2n1` [Compound 176, 5-chloro-2-methyl-8-phenyl-[1,2,4]triazolo[1,5-a]pyrazin-6-amine], the 50% inhibitory concentration (IC50) in experiment [1] and in experiment [2] was under 10 nM throughout.

As to `CC(C)c1nc2c(-c3ccccc3)nc(N)c(Cl)n2n1` [Compound 177, 5-chloro-8-phenyl-2-propan-2-yl-[1,2,4]triazolo[1,5-a]pyrazin-6-amine], the IC50 in experiment [1] and in experiment [2] was under 10 nM throughout.

On to `Nc1nc(-c2ccccc2)c2nc(C(F)(F)F)nn2c1Cl` [Compound 178, 5-chloro-8-phenyl-2-(trifluoromethyl)-[1,2,4]triazolo[1,5-a]pyrazin-6-amine], for which the IC50 in experiment [1] and in experiment [2] was under 10 nM throughout.

For the molecule `CC(=O)Nc1cn2nc(C)nc2c(-c2ccco2)n1` [Compound 179, N-[8-(furan-2-yl)-2-methyl-[1,2,4]triazolo[1,5-a]pyrazin-6-yl]acetamide], the IC50 in experiment [1] and in experiment [2] was under 10 nM throughout.

Regarding `Cc1nc2c(-c3ccco3)nc(NC(=O)C3CC3)cn2n1` [Compound 180, N-[8-(furan-2-yl)-2-methyl-[1,2,4]triazolo[1,5-a]pyrazin-6-yl]cyclopropanecarboxamide], the 50% inhibitory concentration (IC50) in experiment [1] and in experiment [2] was under 10 nM each time.

For the molecule `CC(C)c1nc2c(-c3ccco3)nc(NC(=O)C3CC3)cn2n1` [Compound 181, N-[8-(furan-2-yl)-2-propan-2-yl-[1,2,4]triazolo[1,5-a]pyrazin-6-yl]cyclopropanecarboxamide], the IC50 in experiment [1] and in experiment [2] was under 10 nM in each case.

Turning to `Cc1nc2c(-c3ccccc3C)nc(N)c(Cl)n2n1` [Compound 182, 5-chloro-2-methyl-8-(2-methylphenyl)-[1,2,4]triazolo[1,5-a]pyrazin-6-amine], the IC50 in experiment [1] and in experiment [2] was 100 to 1000 nM each time.

As to `Cc1cccc(-c2nc(N)c(Cl)n3nc(C)nc23)c1` [Compound 183, 5-chloro-2-methyl-8-(3-methylphenyl)-[1,2,4]triazolo[1,5-a]pyrazin-6-amine], the results for the IC50 in experiment [1] and in experiment [2] were under 10 nM and 10 to 100 nM, respectively.

`Cc1ccc(-c2nc(N)c(Cl)n3nc(C)nc23)cc1` [Compound 184, 5-chloro-2-methyl-8-(4-methylphenyl)-[1,2,4]triazolo[1,5-a]pyrazin-6-amine]: the IC50 in experiment [1] and in experiment [2] was under 10 nM in each case.

As to `Cc1ccc(-c2nc(NC(=O)C3CC3)cn3nc(C(F)F)nc23)o1` [Compound 185, N-[2-(difluoromethyl)-8-(5-methylfuran-2-yl)-[1,2,4]triazolo[1,5-a]pyrazin-6-yl]cyclopropanecarboxamide], the IC50 in experiment [1] and in experiment [2] was under 10 nM each time.

Regarding `Cc1ccc(-c2nc(NC(=O)C3CC3)cn3nc(N)nc23)o1` [Compound 187, N-[2-amino-8-(5-methylfuran-2-yl)-[1,2,4]triazolo[1,5-a]pyrazin-6-yl]cyclopropanecarboxamide], the IC50 in experiment [1] and in experiment [2] was under 10 nM each time.

`Cc1ccc(-c2nc(NC(=O)C3CC3)cn3nc(Br)nc23)o1` [Compound 188, N-[2-bromo-8-(5-methylfuran-2-yl)-[1,2,4]triazolo[1,5-a]pyrazin-6-yl]cyclopropanecarboxamide]: the IC50 in experiment [1] and in experiment [2] was under 10 nM throughout.

`Cc1ccc(-c2nc(NC(=O)C3CC3)cn3nc(C(F)(F)F)nc23)o1` [Compound 189, N-[8-(5-methylfuran-2-yl)-2-(trifluoromethyl)-[1,2,4]triazolo[1,5-a]pyrazin-6-yl]cyclopropanecarboxamide]: the IC50 in experiment [1] and in experiment [2] was under 10 nM in each case.

`Cc1ccc(-c2nc(NC(=O)C3CC3)cn3nc(CF)nc23)o1` [Compound 190, N-[2-(fluoromethyl)-8-(5-methylfuran-2-yl)-[1,2,4]triazolo[1,5-a]pyrazin-6-yl]cyclopropanecarboxamide]: the IC50 in experiment [1] and in experiment [2] was under 10 nM in each case.

`Cc1ccc(-c2nc(NC(=O)C3CC3)cn3ccnc23)o1` [Compound 192, N-[8-(5-methylfuran-2-yl)imidazo[1,2-a]pyrazin-6-yl]cyclopropanecarboxamide]: the IC50 in experiment [1] and in experiment [2] was 10 to 100 nM throughout.

With `Cc1ccc(-c2nc(N)cn3cc(C(F)(F)F)nc23)o1` [Compound 195, 8-(5-methylfuran-2-yl)-2-(trifluoromethyl)imidazo[1,2-a]pyrazin-6-amine], the results for the IC50 in experiment [1] and in experiment [2] were 10 to 100 nM and 100 to 1000 nM, respectively.

For `Cc1ccc(-c2nc(NC(=O)C3CC3)cn3c(C)cnc23)o1` [Compound 196, N-[3-methyl-8-(5-methylfuran-2-yl)imidazo[1,2-a]pyrazin-6-yl]cyclopropanecarboxamide], the IC50 in experiment [1] and in experiment [2] was 10 to 100 nM throughout.

Regarding `Cc1ccc(-c2nc(NC(=O)C3CC3)cn3cc(C(F)(F)F)nc23)o1` [Compound 197, N-[8-(5-methylfuran-2-yl)-2-(trifluoromethyl)imidazo[1,2-a]pyrazin-6-yl]cyclopropanecarboxamide], the IC50 in experiment [1] and in experiment [2] was under 10 nM throughout.

As to `Cc1ccc(-c2nc(N)cn3c(C)cnc23)o1` [Compound 198, 3-methyl-8-(5-methylfuran-2-yl)imidazo[1,2-a]pyrazin-6-amine], the IC50 in experiment [1] and in experiment [2] was over 1000 nM each time.

As to `Cc1cn2cc(NC(=O)C3CC3)nc(-c3ccc(C)o3)c2n1` [Compound 199, N-[2-methyl-8-(5-methylfuran-2-yl)imidazo[1,2-a]pyrazin-6-yl]cyclopropanecarboxamide], the IC50 in experiment [1] was under 10 nM; in experiment [2] it was 10 to 100 nM.

For `Cc1cn2cc(N)nc(-c3ccc(C)o3)c2n1` [Compound 200, 2-methyl-8-(5-methylfuran-2-yl)imidazo[1,2-a]pyrazin-6-amine], the IC50 in experiment [1] and in experiment [2] was 100 to 1000 nM each time.

In the case of `Cc1cn2c(Cl)c(N)nc(-c3ccccc3)c2n1` [Compound 201, 5-chloro-2-methyl-8-phenylimidazo[1,2-a]pyrazin-6-amine], the IC50 is 10 to 100 nM in experiment [1] and 100 to 1000 nM in experiment [2].

On to `Cc1cn2c(Cl)c(N)nc(-c3ccc(F)cc3)c2n1` [Compound 202, 5-chloro-8-(4-fluorophenyl)-2-methylimidazo[1,2-a]pyrazin-6-amine], for which the IC50 in experiment [1] and in experiment [2] was 100 to 1000 nM each time.

As to `Cc1cn2c(Br)c(N)nc(-c3ccccc3)c2n1` [Compound 203, 5-bromo-2-methyl-8-phenylimidazo[1,2-a]pyrazin-6-amine], the IC50 in experiment [1] and in experiment [2] was 100 to 1000 nM throughout.

For the molecule `Nc1nc(-c2ccccc2)c2nc(C(F)(F)F)cn2c1Cl` [Compound 204, 5-chloro-8-phenyl-2-(trifluoromethyl)imidazo[1,2-a]pyrazin-6-amine], the IC50 in experiment [1] and in experiment [2] was 10 to 100 nM throughout.

Take `CC(=O)Nc1cn2cc(C)nc2c(-c2ccc(C)o2)n1` [Compound 205, N-[2-methyl-8-(5-methylfuran-2-yl)imidazo[1,2-a]pyrazin-6-yl]acetamide]: the IC50 was under 10 nM in experiment [1] and 10 to 100 nM in experiment [2].

On to `Cc1cn2c(Br)c(N)nc(-c3ccc(F)cc3)c2n1` [Compound 206, 5-bromo-8-(4-fluorophenyl)-2-methylimidazo[1,2-a]pyrazin-6-amine], for which the IC50 in experiment [1] and in experiment [2] was 100 to 1000 nM in each case.

Regarding `Cc1cccc(-c2nc(N)c(Cl)n3cc(C)nc23)c1` [Compound 207, 5-chloro-2-methyl-8-(3-methylphenyl)imidazo[1,2-a]pyrazin-6-amine], the IC50 in experiment [1] and in experiment [2] was 100 to 1000 nM in each case.

Turning to `Cc1cn2cc(NC(=O)C3CC3)nc(-c3ccco3)c2n1` [Compound 208, N-[8-(furan-2-yl)-2-methylimidazo[1,2-a]pyrazin-6-yl]cyclopropanecarboxamide], the IC50 in experiment [1] is under 10 nM; in experiment [2] it was 10 to 100 nM.

In the case of `Cc1ccc(-c2nc(NC(=O)C3CC3)cn3cc(CO)nc23)o1` [Compound 209, N-[2-(hydroxymethyl)-8-(5-methylfuran-2-yl)imidazo[1,2-a]pyrazin-6-yl]cyclopropanecarboxamide], the concentration for half-maximal inhibition (IC50) in experiment [1] was under 10 nM; in experiment [2], 10 to 100 nM.

In the case of `Cc1ccc(-c2nc(NC(=O)C3CC3)cn3cc(CF)nc23)o1` [Compound 210, N-[2-(fluoromethyl)-8-(5-methylfuran-2-yl)imidazo[1,2-a]pyrazin-6-yl]cyclopropanecarboxamide], the concentration for half-maximal inhibition (IC50) in experiment [1] is under 10 nM; in experiment [2] it was 10 to 100 nM.

On to `CC(=O)Nc1cn2cc(C)nc2c(-c2ccco2)n1` [Compound 211, N-[8-(furan-2-yl)-2-methylimidazo[1,2-a]pyrazin-6-yl]acetamide], for which the IC50 in experiment [1] and in experiment [2] was 10 to 100 nM throughout.

Consider `CC(C)c1cn2cc(NC(=O)C3CC3)nc(-c3ccco3)c2n1` [Compound 212, N-[8-(furan-2-yl)-2-propan-2-ylimidazo[1,2-a]pyrazin-6-yl]cyclopropanecarboxamide], for which the figures for the IC50 in experiment [1] and in experiment [2] were under 10 nM and 10 to 100 nM, respectively.
